± gives the expanded uncertainty stated by the source.
Assay: excess molar enthalpy (molar enthalpy of mixing); xn = mol fraction of the nth substance listed
Conditions: 298.15 K, 101.3 kPa, Liquid

CCCCCCCCC [nonane] + CCCCCO
Conditions | excess molar enthalpy [kJ/mol]
x2 = 0.0545 | 0.414 ± 0.017
x2 = 0.0997 | 0.516 ± 0.02
x2 = 0.1605 | 0.59 ± 0.023
x2 = 0.2245 | 0.648 ± 0.025
x2 = 0.2862 | 0.681 ± 0.026
x2 = 0.3535 | 0.694 ± 0.026
x2 = 0.4025 | 0.689 ± 0.026
x2 = 0.4455 | 0.687 ± 0.026
x2 = 0.4998 | 0.67 ± 0.026
x2 = 0.5489 | 0.637 ± 0.024
x2 = 0.6006 | 0.593 ± 0.023
x2 = 0.6527 | 0.541 ± 0.021
x2 = 0.7058 | 0.469 ± 0.019
x2 = 0.7524 | 0.41 ± 0.017
x2 = 0.7962 | 0.33 ± 0.014
x2 = 0.8478 | 0.257 ± 0.011
x2 = 0.8935 | 0.172 ± 0.008
x2 = 0.9382 | 0.086 ± 0.006

CCCCCCCCC [nonane] + COC(C)(C)C
Conditions | excess molar enthalpy [kJ/mol]
x2 = 0.0816 | 0.131 ± 0.007
x2 = 0.1472 | 0.225 ± 0.01
x2 = 0.1747 | 0.265 ± 0.012
x2 = 0.2383 | 0.345 ± 0.014
x2 = 0.2404 | 0.345 ± 0.014
x2 = 0.3312 | 0.428 ± 0.017
x2 = 0.3912 | 0.457 ± 0.018
x2 = 0.4867 | 0.486 ± 0.019
x2 = 0.6601 | 0.437 ± 0.018
x2 = 0.7157 | 0.392 ± 0.016
x2 = 0.7399 | 0.371 ± 0.015
x2 = 0.7773 | 0.337 ± 0.014
x2 = 0.8129 | 0.305 ± 0.013
x2 = 0.8723 | 0.231 ± 0.01
x2 = 0.895 | 0.2 ± 0.009
x2 = 0.9235 | 0.173 ± 0.008
x2 = 0.9285 | 0.141 ± 0.007
x2 = 0.9459 | 0.126 ± 0.007
x2 = 0.9573 | 0.104 ± 0.006
x2 = 0.9632 | 0.082 ± 0.006

Reference: the NIST ThermoML archive (doi:10.1016/j.fluid.2004.12.013)
